Results published in patent US20110065087A1, “NOVEL HIV TARGETS” (priority 2007, published 2011).
d = 2'-deoxy (DNA); r = 2'-OH (RNA)

Test system: HXB2 HIV
Experiment: Rescue of 3′UTR siRNA-mediated inhibition of HIV replication by non-targeted cDNA, β-galactosidase readout
Type: cell-based
Conditions: LIG3 cDNA lacking the 3′UTR; FIG. 7

Q: Which “p, difference between siRNA+vector-transfected and siRNA+cDNA transfected” value does the source give for “CAUACUCUCCUUUACCAUAdTdT (CAUACUCUCCUUUACCAUATT; siRNA; sugars from the 5' end r19 d2, backbone not given here) [LIG3 siRNA #8, siRNA targeting the 3′UTR of LIG3]” here?
A: < 0.05
